From publication PMC11433535 (Life, 2024)
In brackets after ≈: the same amount, converted by molar mass.

How the values were obtained:
CyHV-3 = details: 222.02 and 444.04 µM acyclovir; cited from earlier work
[1] = Solubility of acyclovir in the cell culture medium; format: physicochemical; details: fully supplemented EMEM cell culture medium, crystallization observed at 3200 µM
Description: The following concentrations were prepared for the experiments: 3200 µM, 1600 µM, 800 µM, 400 µM, 200 µM, 100 µM, and 50 µM.

Frog virus 3 (FV3) [2] = assay: qPCR of viral DNA load in infected EPC cells, FV3; format: cell-based; details: 800 µM acyclovir, MOI 0.05, 48 h, normalized to beta-actin
Description: (§1) The EPC cells were also seeded in 24-well plates (2 × 10^5 cells/well) and incubated overnight at 25 °C. […] The plates were incubated for 48 h at 25 °C. Afterwards, the plates were frozen at −20 °C, followed by nucleic acid extraction and qPCR analysis.
(§2) Extraction of viral DNA was carried out with the Viral Nucleic Acid Extraction Kit II (Geneaid, New Taipei City, China) according to the manufacturer’s instructions. The extracted DNA was stored at −20 °C. Quantitative PCRs (qPCRs) were used to determine the relative amount of viral DNA in the treated and control groups. The qPCRs were performed in a Bio-Rad® Real-Time PCR System instrument (Bio-Rad, Hercules, CA, USA) using the SensiFast^TM SYBR Hi-ROX Kit (Bioline, London, UK). The PCR mixture contained 10 µL of 2xSensifast SYBR mix, 0.8 µL of forward and reverse primers, 6.4 µL pf distilled water, and 2 µL of the target DNA. The final 20 µL mixture was used in a program that included an initial denaturing step at 95 °C for 3 min, followed by 40 cycles of 95 °C for 5 s and either 65 °C or 72 °C for 30 s. All the qPCRs were performed in duplicate, and the beta-actin gene of the EPC cells was used as an internal standard. The resulting qPCR data were analyzed by the Bio-Rad CFX Maestro Software. During the experiment, ranavirus major capsid protein forward and reverse primers were used for both the ECV and FV3 viruses. […]

[3] = tested on: Ictalurid herpesvirus 2 (IcHV-2); assay: Endpoint virus titration (TCID50/mL) in EPC cells, IcHV-2; format: cell-based; details: 800 µM acyclovir, 10 days, vs control
Description: (§3) Epithelioma Papulosum Cyprini (EPC; ATCC CRL-2872) cells were grown and handled as described in detail previously. IcHV-2 originates from Italy, while the ECV strain (14612/2012) was isolated from the brown bullhead in Hungary. The Frog Virus 3 strain Granoff (FV3, ATCC VR-567) was originally isolated from a leopard frog (Lithobates pipiens) in the USA in 1965 [38] and was propagated on various fish and reptilian cell lines before it was added to our collection by courtesy of Rachel Marschang (University of Hohenheim, Stuttgart, Germany). All three viruses were cultivated in the EPC cell line at 25 °C. The tissue culture infectious dose (TCID50/mL) was calculated by the Reed and Muench method.
(§4) The EPC cells were seeded into 96-well plates (2 × 10^4 cells/well) and incubated overnight at 25 °C. […] The titers were read after 10 days of incubation at 25 °C.

Frog virus 3 (FV3) [4] = assay: Endpoint virus titration (TCID50/mL) in EPC cells, FV3; format: cell-based; details: 800 µM acyclovir, 10 days, vs control
Description: as §3, §4

in vitro = format: cell-based; details: fathead minnow (Pimephales promelas)
Description: In brief, 96-well plates were seeded with the EPC cells at a density of 2 × 10^4 cells/well and incubated for 24 h at 25 °C. The growth medium was then replaced with acyclovir-containing medium at concentrations of 3200 µM, 1600 µM, 800 µM, 400 µM, 200 µM, 100 µM, and 50 µM.

[5] = tested on: Ictalurid herpesvirus 2 (IcHV-2); assay: qPCR of viral DNA load in infected EPC cells, IcHV-2; format: cell-based; details: 800 µM acyclovir, MOI 0.05, 48 h, normalized to beta-actin
Description: as §1, §2

IcHV-1 = details: 10 µM acyclovir, BB cells; cited from earlier work
[6] = tested on: European catfish virus (ECV); assay: qPCR of viral DNA load in infected EPC cells, ECV; format: cell-based; details: 800 µM acyclovir, MOI 0.05, 48 h, normalized to beta-actin
Description: as §1, §2

[7] = tested on: European catfish virus (ECV); assay: Endpoint virus titration (TCID50/mL) in EPC cells, ECV; format: cell-based; details: 800 µM acyclovir, 10 days, vs control
Description: as §3, §4

For `Nc1nc2c(ncn2COCCO)c(=O)[nH]1` [acyclovir], the “Reduction (CyHV-3)” value (CyHV-3) is given as 98%, the solubility [1] is given as 3.2 mM (≈ 721 µg/mL) and the “Reduction of viral DNA load (qPCR)” value (Frog virus 3 (FV3) [2]) is given as 10^3 fold. The “Decrease of viral load (TCID50/mL titer)” value [3] was 30 fold, the “Decrease of viral load (TCID50/mL titer)” value (Frog virus 3 (FV3) [4]) was 11 fold and the viability at 3 days, 50 µM (in vitro) was 113 ± 1.92%. For the same compound, the viability at 3 days, 100 µM (in vitro) was 105 ± 1.48%, the viability at 3 days, 200 µM (in vitro) was 111 ± 2.27% and the viability at 3 days, 400 µM (in vitro) was 110 ± 3.45%. The viability at 3 days, 800 µM (in vitro) was 103 ± 1.41%, the viability at 3 days, 1600 µM (in vitro) was 94.3 ± 1.47% and the viability at 3 days, 3200 µM (in vitro) was 103 ± 1.58%. For the same compound, the “Reduction of viral DNA load (qPCR)” value [5] was 10^4 fold, the “Reduction of plaque number” value (IcHV-1) was 99% and the “Reduction of viral DNA load (qPCR)” value [6] was 10^5 fold. For the same compound, the “Decrease of viral load (TCID50/mL titer)” value [7] was 2500 fold.
